Earlier results in patent publication US20260078132A1, “SOLID FORMS OF AN INHIBITOR OF HIF AND METHODS OF USING SAME” (ONCOSPHERIX INC., priority 2022, published 2026).

Columns and labels:
p300 [1] = biological target: T1, p300 (Homo sapiens, UniProt Q09472)
p300 [2] = biological target: T1, p300; remark: listed apart in the source

T1 sequence (Q09472 whole entry, species assumed): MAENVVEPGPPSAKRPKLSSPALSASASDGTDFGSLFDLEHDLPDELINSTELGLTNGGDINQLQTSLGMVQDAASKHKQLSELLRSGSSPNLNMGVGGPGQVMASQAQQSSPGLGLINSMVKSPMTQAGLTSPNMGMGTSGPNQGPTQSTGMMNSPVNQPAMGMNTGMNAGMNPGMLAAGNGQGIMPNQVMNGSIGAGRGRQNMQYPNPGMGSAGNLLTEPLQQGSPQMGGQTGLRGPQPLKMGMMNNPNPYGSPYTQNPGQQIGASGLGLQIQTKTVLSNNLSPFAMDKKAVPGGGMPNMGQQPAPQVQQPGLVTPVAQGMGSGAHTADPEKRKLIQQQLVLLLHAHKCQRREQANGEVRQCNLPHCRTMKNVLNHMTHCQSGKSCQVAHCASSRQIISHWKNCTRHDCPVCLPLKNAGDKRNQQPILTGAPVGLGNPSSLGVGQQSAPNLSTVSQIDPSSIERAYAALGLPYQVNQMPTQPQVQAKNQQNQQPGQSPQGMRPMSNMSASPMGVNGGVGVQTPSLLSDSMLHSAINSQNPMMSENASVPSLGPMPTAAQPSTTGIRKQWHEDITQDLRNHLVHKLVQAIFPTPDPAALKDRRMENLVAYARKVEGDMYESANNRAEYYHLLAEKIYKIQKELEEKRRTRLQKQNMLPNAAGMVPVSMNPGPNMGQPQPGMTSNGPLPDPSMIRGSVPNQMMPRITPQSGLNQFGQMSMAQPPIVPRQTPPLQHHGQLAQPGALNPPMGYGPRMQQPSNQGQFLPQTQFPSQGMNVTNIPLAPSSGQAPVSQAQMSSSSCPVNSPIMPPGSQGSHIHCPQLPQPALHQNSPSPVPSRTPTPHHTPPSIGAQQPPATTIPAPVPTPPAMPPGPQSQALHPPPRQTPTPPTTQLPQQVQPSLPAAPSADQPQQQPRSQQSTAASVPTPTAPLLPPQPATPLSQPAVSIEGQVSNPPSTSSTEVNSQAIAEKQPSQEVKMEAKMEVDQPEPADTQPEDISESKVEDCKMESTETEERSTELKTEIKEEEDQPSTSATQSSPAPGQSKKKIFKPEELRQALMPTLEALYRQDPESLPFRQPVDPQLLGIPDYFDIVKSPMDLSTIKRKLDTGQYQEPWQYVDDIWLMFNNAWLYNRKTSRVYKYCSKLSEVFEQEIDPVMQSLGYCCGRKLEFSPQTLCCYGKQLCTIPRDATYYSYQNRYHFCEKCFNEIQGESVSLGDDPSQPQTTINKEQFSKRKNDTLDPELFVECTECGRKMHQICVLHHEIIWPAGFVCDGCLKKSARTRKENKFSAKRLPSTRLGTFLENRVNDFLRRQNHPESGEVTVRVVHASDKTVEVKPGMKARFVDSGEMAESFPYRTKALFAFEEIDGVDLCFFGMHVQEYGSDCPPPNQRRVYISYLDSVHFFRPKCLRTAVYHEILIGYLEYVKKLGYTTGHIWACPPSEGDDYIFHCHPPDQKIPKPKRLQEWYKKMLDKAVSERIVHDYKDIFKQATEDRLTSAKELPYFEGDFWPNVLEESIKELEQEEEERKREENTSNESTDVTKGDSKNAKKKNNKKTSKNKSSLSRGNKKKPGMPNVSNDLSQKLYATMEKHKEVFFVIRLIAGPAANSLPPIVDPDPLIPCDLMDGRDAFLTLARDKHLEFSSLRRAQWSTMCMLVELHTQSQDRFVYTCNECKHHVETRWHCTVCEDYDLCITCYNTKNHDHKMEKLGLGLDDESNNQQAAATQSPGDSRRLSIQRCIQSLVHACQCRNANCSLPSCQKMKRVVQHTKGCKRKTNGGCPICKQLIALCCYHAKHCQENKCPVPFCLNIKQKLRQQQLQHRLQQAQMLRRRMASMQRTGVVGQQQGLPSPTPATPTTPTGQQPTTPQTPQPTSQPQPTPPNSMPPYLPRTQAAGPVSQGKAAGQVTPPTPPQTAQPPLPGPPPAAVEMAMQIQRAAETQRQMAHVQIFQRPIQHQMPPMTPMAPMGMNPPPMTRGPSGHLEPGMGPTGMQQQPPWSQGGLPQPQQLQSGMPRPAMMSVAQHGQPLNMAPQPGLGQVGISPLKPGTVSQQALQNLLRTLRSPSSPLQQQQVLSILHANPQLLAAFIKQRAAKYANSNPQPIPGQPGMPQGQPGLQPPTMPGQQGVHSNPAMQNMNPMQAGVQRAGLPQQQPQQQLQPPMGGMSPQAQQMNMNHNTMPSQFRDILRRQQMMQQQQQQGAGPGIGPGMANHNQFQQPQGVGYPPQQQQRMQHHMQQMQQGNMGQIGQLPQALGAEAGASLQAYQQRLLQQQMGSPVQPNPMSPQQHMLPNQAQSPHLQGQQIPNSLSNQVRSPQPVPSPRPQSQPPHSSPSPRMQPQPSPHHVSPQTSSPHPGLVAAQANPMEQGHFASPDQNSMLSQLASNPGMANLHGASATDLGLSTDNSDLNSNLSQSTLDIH

**Q.** For `COc1ccc(S(=O)(=O)N(Cc2ccc3c(n2)C=CC(C)(C)O3)C2CCC2)cc1OC` [Compound 9, N-Cyclobutyl-N-((2,2-dimethyl-2H-pyrano[3,2-b]pyridin-6-yl)methyl)-3,4-dimethoxybenzenesulfonamide], which “binding to p300” value (p300 [1]) is on record?
**A.** The value was “binding of Compound 9 to p300”.

**Q.** And the “pull-down of p300” value (p300 [2])?
**A.** The value was “pull-down of p300 by Compound 9”.
